Data from PubChem BioAssay (NCI).
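Values below derive from 48-hour exposures of cells grown in 96-well plates, with endpoints linearly interpolated between the two concentrations bracketing the appropriate inhibition level. TGI: concentration producing complete growth inhibition.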

Columns and labels:
Test in all cases: growth of human tumour cells (NCI), 48 h
MALME-3M melanoma = tested on: MALME-3M melanoma
CCRF-CEM leukemia = tested on: CCRF-CEM leukemia
TK-10 renal = tested on: TK-10 renal
HOP-92 NSCLC = tested on: HOP-92 NSCLC
A549 NSCLC = tested on: A549 NSCLC
A498 renal = tested on: A498 renal
SK-MEL-5 melanoma = tested on: SK-MEL-5 melanoma
SW-620 colon = tested on: SW-620 colon
SNB-19 CNS = tested on: SNB-19 CNS
MDA-MB-435 = tested on: MDA-MB-435
HL-60(TB) leukemia = tested on: HL-60(TB) leukemia
NCI-H460 lung = tested on: NCI-H460 lung
PC-3 prostate = tested on: PC-3 prostate
MDA-N = tested on: MDA-N
RXF 393 renal = tested on: RXF 393 renal
HCC-2998 colon = tested on: HCC-2998 colon
HT29 colon = tested on: HT29 colon
BT-549 breast = tested on: BT-549 breast
HOP-62 NSCLC = tested on: HOP-62 NSCLC
SF-268 CNS = tested on: SF-268 CNS

SMILES | TGI (MALME-3M melanoma) [µM] | TGI (CCRF-CEM leukemia) [µM] | TGI (TK-10 renal) [µM] | TGI (HOP-92 NSCLC) [µM] | TGI (A549 NSCLC) [µM] | TGI (A498 renal) [µM] | TGI (SK-MEL-5 melanoma) [µM] | TGI (SW-620 colon) [µM] | TGI (SNB-19 CNS) [µM] | TGI (MDA-MB-435) [µM] | TGI (HL-60(TB) leukemia) [µM] | TGI (NCI-H460 lung) [µM] | TGI (PC-3 prostate) [µM] | TGI (MDA-N) [µM] | TGI (RXF 393 renal) [µM] | TGI (HCC-2998 colon) [µM] | TGI (HT29 colon) [µM] | TGI (BT-549 breast) [µM] | TGI (HOP-62 NSCLC) [µM] | TGI (SF-268 CNS) [µM]
CC(C)(C)OC(=O)C1CC[C@@H](CC(=O)Oc2ccc([N+](=O)[O-])cc2)N1 (stereo not given in full) | > 100 | > 100 | > 100 | > 100 | > 100 | > 100 | > 100 | > 100 | > 100 | > 100 | > 100 | > 100 | > 100 | > 100 | > 100 | > 100 | – | – | – | –
O=c1c2cc([N+](=O)[O-])ccc2nc2n1CCCCC2 | > 100 | > 100 | > 100 | > 100 | > 100 | > 100 | > 100 | > 100 | – | > 100 | > 100 | > 100 | > 100 | > 100 | > 100 | – | > 100 | > 100 | > 100 | > 100
O=c1[nH]c(=O)n(C2CC(O)C(CO)O2)cc1OCC1CCCCC1 (stereo not given) | > 100 | > 100 | > 100 | – | > 100 | – | > 100 | – | > 100 | > 100 | > 100 | > 100 | > 100 | > 100 | > 100 | – | > 100 | > 100 | > 100 | > 100
O=C(c1cc2c(c3ccccc13)NCCN=C2C(F)(F)F)C(F)(F)F | – | > 100 | 78 | 86.6 | – | 40.3 | 31 | > 100 | – | > 100 | 75.4 | 34.4 | 33.5 | > 100 | > 100 | 33 | 33.1 | – | 53 | > 100
CCOC(=O)c1ccc(Nc2nc3ccccc3nc2C(=O)OCC)cc1 | > 100 | > 100 | > 100 | > 100 | > 100 | – | > 100 | – | > 100 | > 100 | > 100 | > 100 | – | > 100 | – | > 100 | > 100 | > 100 | > 100 | > 100
O=S(=O)(c1ccccc1)C1(CCC2OCCO2)C=CC2(CC1)OCCO2 (stereo not given) | > 100 | > 100 | > 100 | > 100 | > 100 | > 100 | > 100 | > 100 | > 100 | > 100 | > 100 | > 100 | – | > 100 | – | > 100 | > 100 | > 100 | > 100 | > 100
COc1cc(Nc2nc3ccc(C(F)(F)F)cc3nc2C(=O)O)cc(OC)c1OC | 88.8 | > 100 | 62.2 | – | > 100 | – | > 100 | 59.9 | > 100 | 71.1 | > 100 | 48.4 | 56.1 | 46.8 | 54 | 34.5 | 63.3 | 37.9 | 48.2 | 46.8
CC(C)SC(NC(=O)C1C(C)(C)CCC1(C)C)C(=O)O (stereo not given) | – | > 100 | > 100 | > 100 | > 100 | > 100 | > 100 | > 100 | > 100 | > 100 | > 100 | > 100 | > 100 | > 100 | – | > 100 | – | – | > 100 | > 100
CN(CC(=O)O)c1ncc2c(n1)-c1ccccc1OC2 | > 100 | > 100 | > 100 | > 100 | > 100 | > 100 | > 100 | > 100 | > 100 | > 100 | > 100 | > 100 | > 100 | > 100 | > 100 | – | > 100 | – | – | > 100
Cc1ccc(/C=C2\Cc3cccc(C)c3C2=O)c(C(=O)O)c1 | > 100 | > 100 | > 100 | 53.6 | > 100 | > 100 | > 100 | > 100 | > 100 | – | > 100 | > 100 | > 100 | > 100 | > 100 | > 100 | > 100 | > 100 | > 100 | > 100
Cc1ccc(C(=O)OCC(C)C)cc1N=NN(C)C | > 100 | > 100 | > 100 | > 100 | > 100 | – | > 100 | > 100 | > 100 | > 100 | > 100 | > 100 | > 100 | > 100 | – | > 100 | > 100 | > 100 | > 100 | > 100
Clc1ccc(-c2ccc(-c3nn4c(CNc5ccccc5)nnc4s3)o2)c(Cl)c1 | > 100 | > 100 | > 100 | > 100 | > 100 | > 100 | > 100 | > 100 | > 100 | > 100 | > 100 | > 100 | > 100 | > 100 | 86.2 | – | > 100 | > 100 | > 100 | > 100
[O-][n+]1onc2c1/C(=N/O)CCC2 | > 100 | > 100 | > 100 | – | > 100 | > 100 | > 100 | > 100 | > 100 | > 100 | > 100 | > 100 | > 100 | > 100 | > 100 | > 100 | > 100 | – | > 100 | > 100
